The target in the test is Na/K-ATPase. The test can be described thus: 3H-ouabain radioligand binding assay (RBA). As to conditions: for IC50: 3H-ouabain radioligand binding assay (RBA). The source says:
The potency of steroids to displace the labelled cardiac glycoside (i.e. ouabain) in the assay parallel their biological activity, that is their cardiac glycoside-like activity, in their ability to inhibit Na/K-ATPase and elicit characteristic cellular response.

Structures are written as SMILES. Counter-ions that a name gives are not always drawn.

As to `C[C@@H]1O[C@@H](O[C@H]2CC[C@@]3(C)[C@H](CC[C@@H]4[C@@H]3CC[C@]3(C)[C@@H](CN)CC[C@]43O)C2)[C@H](O)[C@H](O)[C@H]1O` [Example 1, 14-Hydroxy-3β-(α-L-rhamnopyranosyl)oxy-20-amino-21-nor-5β14β-pregnane hydrochloride], the IC50 came out at 60 nM. Further, the IC50 (unit printed 'nm') worked out at 60 nM. For `CC1OC(OC2C(O)CC(OC3C(O)CC(OC4CCC5(C)C(CCC6C5CCC5(C)C(CN)CCC65O)C4)OC3C)OC2C)CC(O)C1O` [Example 3, 14-Hydroxy-3β-(tris-β-D-digitoxosyl)oxy-20-amine-21-nor-5β,14β-pregnane], the IC50 turned out to be 400 nM. Molecule `CC1OC(OC2C(O)CC(OC3C(O)CC(OC4CCC5(C)C(CCC6C5CCC5(C)C(C[N+](=O)[O-])CCC65O)C4)OC3C)OC2C)CC(O)C1O` [Example 4, 14-Hydroxy-3 β-(tris-β-D-digitoxosyl)oxy-20-nitro-21-nor-5β,14β-pregnane] came in with an IC50 of 60 nM. As to `C[C@@H]1O[C@@H](O[C@H]2CC[C@@]3(C)[C@H](CC[C@@H]4[C@@H]3CC[C@]3(C)[C@@H](C[N+](=O)[O-])CC[C@]43O)C2)[C@H](O)[C@H](O)[C@H]1O` [Example 2, 14-Hydroxy-3β-(α-L-rhamnopyranosyl)oxy-20-nitro-21-nor-5β,14β-pregnane], the IC50 is 11 nM. This molecule displayed an IC50 (unit printed 'nm') of 11 nM. The “potency compared with Example 1 and Example 4” value (comparison of IC50 values, in words) was “significantly greater than exhibited by the corresponding amino derivative (Example 1) and tridigitoxosyl derivative (Example 4)”.

These data come from US5270457A, “Cardiac steriod glycosides” (University of Manitoba, priority 1992, dated 1993).
